From US20160220609A1, “REGULATION OF STEROIDOGENIC ACTIVITY BY USING PURIFIED SHILAJIT” (NATREON, INC., priority 2013, published 2016)

System: steroidogenic genes in mouse skeletal muscle
Test: Gene expression profiling (Affymetrix GeneChip) of skeletal muscle of mice supplemented for 12 weeks
Type: in vivo
Conditions: 10 mg/kg body weight intragastric in DMSO/corn oil
Experimental: Procedure for Studies in Mice Using Shilajit and DBPs:
Three groups of adult mice (n=8) were intragastrically supplemented with purified Shilajit (PS), 3,8-(OH)2-DBP, or placebo for 12 weeks. At the end of week 12, skeletal muscle tissue was harvested for gene profiling. Some tissue was stored for histology and HPLC analysis.
The control group of mice received DMSO in corn oil while the PS group received 100 mg of purified Shilajit/kg body weight of mice, dissolved in water and the DBP group received 10 mg of 3,8-(OH)2-DBP/kg body weight of mice, dissolved in DMSO/corn oil.
At week 12, the following tissues were collected from mice: heart, lung, liver, brain, muscles, adipose tissue, skeletal muscle (vastus lateralis) and whole blood.
Gene Expression Profiling using GeneChip® Assay
Affymetrix GeneChip® technology (Affymetrix, Santa Clara, Calif.) was used for transcriptome profiling of skeletal muscle tissue. Gene chip assays were performed in accordance with the following references: Roy, S., Biswas, S., Khanna, S., Gordillo, G., Bergdall, V., Green, J., Marsh, C. B., Gould, L. J., Sen, C. K., “Characterization of a preclinical model of chronic ischemic wound,” Physiol. Genomics (2009) May 13; 37(3):211-24; Roy, S., Khanna, S., Rink, C., Biswas, S., Sen, C. […]

`O=c1oc2cc(O)ccc2c2ccc(O)cc12` [3,8-(OH)2-DBP, 3,8-dihydroxy-dibenzo-a-pyrone] was tested, and the “Effect on steroidogenic activity in mice” value was “did not show significant effect”.
